28 compounds from patent US8012956B2, “Tropane compounds” (Exelixis, Inc., priority 2007, dated 2011) can be followed below.

The assay concerns the target HSP90 (Homo sapiens, UniProt P07900). The assay is described as follows: HSP90 inhibition (HSP90 IC50). It counts as biochemical.
With `Cc1cc(C(=O)NC2CC3CCC(C2)N3c2ccc(C(=O)N[C@H]3CCCN(C(C)C)C3)cn2)c(C)cc1C(N)=O` (stereo partly drawn) [2,5-dimethyl-N-{8-[5-({[(3S)-1-(1-methylethyl)piperidin-3-yl]amino}carbonyl)pyridin-2-yl]-8-azabacyclo[3.2.1]oct-3-endo-yl}benzene-1,4-dicarboxamide], the IC50 (usually the concentration at which inhibition is half-maximal) fell in the range of 500 to 999 nM.

Regarding `CCc1cc(C(N)=O)c(N[C@H](C)CC)cc1C(=O)NC1CC2CCC(C1)N2c1ccc(C(=O)C2CC2)cn1` (stereo partly drawn) [N-{8-[5-(cyclopropylcarbonyl)pyridin-2-yl]-8-azabicyclo[3.2.1]oct-3-endo-yl}-2-ethyl-5-{[(1R)-1-methylpropyl]amino}benzene-1,4-dicarboxamide], the IC50 was < 500 nM.

Regarding `CC(=O)c1ccc(N2[C@@H]3CC[C@H]2C[C@@H](NC(=O)c2ccc(C(N)=O)c(Nc4ccccc4)c2)C3)nc1` [N4-[8-(5-acetylpyridin-2-yl)-8-azabicyclo[3.2.1]oct-3-endo-yl]-2-(phenylamino)benzene-1,4-dicarboxamide], the IC50 is < 500 nM.

Take `COc1ccc(CNC(=O)c2ccc(N3[C@@H]4CC[C@H]3C[C@@H](NC(=O)c3cccc(OC)c3C)C4)nc2)c(OC)c1` [N-{[2,4-bis(methyloxy)phenyl]methyl}-6-[3-endo-({[2-methyl-3-(methyloxy)phenyl]carbonyl}amino)-8-azabicyclo[3.2.1]oct-8-yl]pyridine-3-carboxamide]: the IC50 lay in the range of 500 to 999 nM.

`COc1cccc(C(=O)N[C@H]2C[C@H]3CC[C@@H](C2)N3c2ccc(C(=O)NC3CNC3)cn2)c1C` [N-azetidin-3-yl-6-[3-endo-({[2-methyl-3-(methyloxy)phenyl]carbonyl}amino)-8-azabicyclo[3.2.1]oct-8-yl]pyridine-3-carboxamide]: the IC50 lay within 500 to 999 nM.

Take `CCN(CC)CCNC(=O)c1ccc(N2[C@@H]3CC[C@H]2C[C@@H](NC(=O)c2cccc(OC)c2C)C3)nc1` [N-[2-(diethylamino)ethyl]-6-[3-endo-({[2-methyl-3-(methyloxy)phenyl]carbonyl}amino)-8-azabicyclo[3.2.1]oct-8-yl]pyridine-3-carboxamide]: the IC50 was 500 to 999 nM.

With `CCC(Nc1cc(C(=O)N[C@H]2C[C@H]3CC[C@@H](C2)N3c2ccc(C(=O)C3CC3)cn2)c(C)cc1C(N)=O)C(F)(F)F` (stereo partly drawn) [N-{8-[5-(cyclopropylcarbonyl)pyridine-2-yl]-8-azabicyclo[3.2.1]oct-3-endo-yl}-2-methyl-5-{[1-(trifluoromethyl)propyl]amino}benzene-1,4-dicarboxamide], the IC50 is < 500 nM.

Take `Cc1cc(C(N)=O)c(NCCC(F)(F)F)cc1C(=O)N[C@H]1C[C@H]2CC[C@@H](C1)N2c1ccc(C(=O)C2CC2)cn1` [N-{8-[5-(cyclopropylcarbonyl)pyridin-2-yl]-8-azabicyclo[3.2.1]oct-3-endo-yl}-2-methyl-5-[(3,3,3-trifluoropropyl)amino]benzene-1,4-dicarboxamide]: the IC50 is < 500 nM.

The compound `COc1cccc(C(=O)NC2CC3CCC(C2)N3c2ccc(C(=O)N[C@H]3CCN(C)C3)cn2)c1C` (stereo partly drawn) [6-[3-endo-({[2-methyl-3-(methyloxy)phenyl]carbonyl}amino)-8-azabicyclo[3.2.1]oct-8-yl]-N-[(3S)-1-methylpyrrolidin-3-yl]pyridine-3-carboxamide] yielded an IC50 of 1000 to 2000 nM.

Take `COc1cccc(C(=O)N[C@H]2C[C@H]3CC[C@@H](C2)N3c2ccc(C(=O)NCCN3CCCCC3)cn2)c1C` [6-[3-endo-({[2-methyl-3-(methyloxy)phenyl]carbonyl}amino)-8-azabicyclo[3.2.1]oct-8-yl]-N-(2-piperidin-1-ylethyl)pyridine-3-carboxamide]: the IC50 lay within 1000 to 2000 nM.

On to `COc1cccc(C(=O)N[C@H]2C[C@H]3CC[C@@H](C2)N3c2ccc(C(=O)NCc3ccc(N4CCN(CC(C)C)CC4)cc3)cn2)c1C` [6-[3-endo-({[2-methyl-3-(methyloxy)phenyl]carbonyl}amino)-8-azabicyclo[3.2.1]oct-8-yl]-N-({4-[4-(2-methylpropyl)piperazin-1-yl]phenyl}methyl)pyridine-3-carboxamide], for which the half-maximal inhibitory concentration (IC50) is < 500 nM.

The compound `CCN1CCC(NC(=O)c2ccc(N3[C@@H]4CC[C@H]3C[C@@H](NC(=O)c3cc(C)c(C(N)=O)cc3C)C4)nc2)CC1` [N-[8-(5-{[(1-ethylpiperidin-4-yl)amino]carbonyl}pyridin-2-yl)-8-azabicyclo[3.2.1]oct-3-endo-yl]-2,5-dimethylbenzene-1,4-dicarboxamide] came in with an IC50 of 500 to 999 nM.

For the compound `C[C@H](NC(=O)c1ccc(N2C3CCC2CC(NC(=O)c2ccc(C(N)=O)c(OC4CCC4)c2)C3)nc1)c1ccc(N2CCN(C)CC2)cc1` (stereo partly drawn) [2-(cyclobutyloxy)-N4-(8-{5-[({(1S)-1-[4-(4-methylpiperazin-1-yl)phenyl]ethyl}amino)carbonyl]pyridin-2-yl}-8-azabicyclo[3.2.1]oct-3-endo-yl)benzene-1,4-dicarboxamide], the IC50 lay within 500 to 999 nM.

As for `CC(C)C(O)CC(=O)c1ccc(N2[C@@H]3CC[C@H]2C[C@@H](NC(=O)c2ccc(C(N)=O)c(NCC4CC4)c2)C3)nc1` (stereo partly drawn) [2-[(cyclopropylmethyl)amino]-N4-{8-[5-(3-hydroxy-4-methylpentanoyl)pyridin-2-yl]-8-azabicyclo[3.2.1]oct-3-endo-yl}benzene-1,4-dicarboxamide], the IC50 was < 500 nM.

As to `CNC(=O)[C@@H](NC(=O)c1ccc(N2C3CCC2CC(NC(=O)c2cccc(OC)c2C)C3)nc1)c1ccc(OC)cc1` (stereo partly drawn) [N-{(1S)-2-(methylamino)-1-[4-(methyloxy)phenyl]-2-oxoethyl}-6-[3-endo-({[2-methyl-3-(methyloxy)phenyl]carbonyl}amino)-8-azabicyclo[3.2.1]oct-8-yl]pyridine-3-carboxamide], the IC50 fell in the range of 500 to 999 nM.

On to `NC(=O)c1ccc(C(=O)N[C@H]2C[C@H]3CC[C@@H](C2)N3c2ccc(C(=O)C(F)(F)F)cn2)cc1NCC1CC1` [2-[(cyclopropylmethyl)amino]-N4-{8-[5-(trifluoroacetyl)pyridin-2-yl]-8-azabicyclo[3.2.1]oct-3-endo-yl}benzene-1,4-dicarboxamide], for which the IC50 lay within 2000 to 10000 nM.

`COc1cc(CNC(=O)c2ccc(N3[C@@H]4CC[C@H]3C[C@@H](NC(=O)c3cccc(OC)c3C)C4)nc2)ccc1F` [N-{[4-fluoro-3-(methyloxy)phenyl]methyl}-6-[3-endo-({[2-methyl-3-(methyloxy)phenyl]carbonyl}amino)-8-azabicyclo[3.2.1]oct-8-yl]pyridine-3-carboxamide] registered an IC50 of 500 to 999 nM.

With `Cc1cc(C(N)=O)c(NC(C2CC2)C2CC2)cc1C(=O)NC1CC2CCC(C1)N2c1ccc(C(=O)C2CC2)cn1` (stereo not drawn) [N-{8-[5-(cyclopropylcarbonyl)pyridin-2-yl]-8-azabicyclo[3.2.1]oct-3-endo-yl}-5-[(dicyclopropylmethyl)amino]-2-methylbenzene-1,4-dicarboxamide], the IC50 is < 500 nM.

`CC(=O)c1ccc(N2[C@@H]3CC[C@H]2C[C@@H](NC(=O)c2ccc(C(N)=O)c(NCCCNC(C)C)c2)C3)nc1` [N4-[8-(5-acetylpyridin-2-yl)-8-azabicyclo[3.2.1]oct-3-endo-yl]-2-({3-[(1-methylethyl)amino]propyl}amino) benzene-1,4-dicarboxamide] yielded an IC50 of 500 to 999 nM.

In the case of “N4-{8-[5- (cyclopropylcarbonyl)pyridin-2-yl]-8- azabicyclo[3.2.1]oct-3-endo-yl}-2- [(cis-4-hydroxy-4- methylcyclohexyl)amino]benzene- 1,4-dicarboxamide”, the IC50 is < 500 nM.

Compound `CCN1CCC[C@H](NC(=O)c2ccc(N3C4CCC3CC(NC(=O)c3cc(C)c(C(N)=O)cc3C)C4)nc2)C1` (stereo partly drawn) [N-{8-[5-({[(3S)-1-ethylpiperidin-3-yl]amino}carbonyl)pyridin-2-yl]-8-azabicyclo[3.2.1]oct-3-endo-yl}-2 5-dimethylbenzene-1,4-dicarboxamide] yielded an IC50 of 500 to 999 nM.

Compound `COc1cccc(C(=O)N[C@H]2C[C@H]3CC[C@@H](C2)N3c2ccc(C(=O)NCc3cc(F)c(F)cc3F)cn2)c1C` [6-[3-endo-({[2-methyl-3-(methyloxy)phenyl]carbonyl}amino)-8-azabicyclo[3.2.1]oct-8-yl]-N-[(2,4,5-trifluorophenyl)methyl]pyridine-3-carboxamide] showed an IC50 of 500 to 999 nM.

In the case of `COc1cccc(C(=O)NC2CC3CCC(C2)N3c2ccc(C(=O)NC(C)c3ccc(N4CCNCC4)nc3)cn2)c1C` (stereo not drawn) [6-[3-endo-({[2-methyl-3-(methyloxy)phenyl]carbonyl}amino)-8-azabicyclo[3.2.1]oct-8-yl]-N-[1-(6-piperazin-1-ylpyridin-3-yl)ethyl]pyridine-3-carboxamide], the IC50 was < 500 nM.

On to `COc1cc(C(=O)N[C@H]2C[C@H]3CC[C@@H](C2)N3c2ccc(C(N)=O)cn2)ccc1CO` [6-[3-endo-({[4-(hydroxymethyl)-3-(methyloxy)phenyl]carbonyl}amino)-8-azabicyclo[3.2.1]oct-8-yl]pyridine-3-carboxamide], for which the half-maximal inhibitory concentration (IC50) lay in the range of 500 to 999 nM.

Regarding `COc1cccc(C(=O)N[C@H]2C[C@H]3CC[C@@H](C2)N3c2ccc(C(=O)NCc3ccccc3Cl)cn2)c1C` [N-[(2-chlorophenyl)methyl]-6-[3-endo-({[2-methyl-3-(methyloxy)phenyl]carbonyl}amino)-8-azabicyclo[3.2.1]oct-8-yl]pyridine-3-carboxamide], the 50% inhibitory concentration (IC50) was < 500 nM.

For `COc1cccc(C(=O)N[C@H]2C[C@H]3CC[C@@H](C2)N3c2ccc(C(=O)Nc3ccc4c(c3)OCO4)cn2)c1C` [N-1,3-benzodioxol-5-yl-6-[3-endo-({[2-methyl-3-(methyloxy)phenyl]carbonyl}amino)-8-azabicyclo[3.2.1]oct-8-yl]pyridine-3-carboxamide], the IC50 is 1000 to 2000 nM.

On to `COc1cccc(NC(=O)c2ccc(N3[C@@H]4CC[C@H]3C[C@@H](NC(=O)c3cccc(OC)c3C)C4)nc2)c1` [6-[3-endo-({[2-methyl-3-(methyloxy)phenyl]carbonyl}amino)-8-azabicyclo[3.2.1]oct-8-yl]-N-[3-(methyloxy)phenyl]pyridine-3-carboxamide], for which the IC50 is 2000 to 10000 nM.

Compound `COc1cccc(C(=O)N[C@H]2C[C@H]3CC[C@@H](C2)N3c2ccc(C(N)=O)cn2)c1CCCCO` [6-[3-endo-({[2-(4-hydroxybutyl)-3-(methyloxy)phenyl]carbonyl}amino)-8-azabicyclo[3.2.1]oct-8-yl]pyridine-3-carboxamide] showed an IC50 of 500 to 999 nM.
